# In patent publication US4468469A, “Substituted phenylacetic acids and salts as TBP blocking agents in iodothyronine immunoassays” (Miles Laboratories, Inc., priority 1982, dated 1984):
# Legend:
# [1] = Fluorescence and fluorescence quenching studies (SLFIA conditions); settings: 10 mM fenclofenac; excitation 400 nm, emission 450 nm, 50 mM Bicine buffer pH 8.3
# Description: Fluorescence measurements were conducted in 50 mM Bicine buffer (N,N-bis-(2-hydroxyethyl)glycine, Calbiochem-Behring, LaJolla, Calif., USA), pH 8.3, using an Aminco Bowman Fluorometer (American Instruments, Silver Springs, Md., USA), excitation set at 400 nm and emission at 450 nm, which are the fluorescence conditions for the β-galactosyl-umbelliferone enzyme substrate-labeled fluorescent immunoassay (SLFIA) described in U.S. Pat. No. 4,279,992.
# Quenching studies were performed by measuring the fluorescence of a 1.3 μM solution of 2-[7-hydroxy-3-carboxamidocoumarin]ethanol (U.S. Pat. No. 4,273,715) in the presence of various levels of fenclofenac. The ratios of observed fluorescence (F) to fluorescence in the absence of fenclofenac (Fo) versus fenclofenac concentration were calculated and are presented in Table 6.
# [2] = test system: dihydrofolate reductase; test: Effect on the activity of dihydrofolate reductase; assay type: biochemical; settings: for Absorbance Change Over 10 Minutes: 560 nm, 37° C.
# Description: Assay mixtures were prepared to contain various concentrations of fenclofenac and, in a 1 ml final volume at 37° C., 0.3 mM thiazoyl blue, […] dihydrofolate, 0.5 mM NADPH, and 0.012 Units/ml of dihydrofolate reductase. The absorbance of each reaction mixture at 560 nm was read over a 10 minute incubation period at 37° C.
# [3] = test system: rabbit antiserum to thyroxine / dihydrofolate reductase; test: Enzyme inhibitor-labeled immunoassay for thyroxine in serum; assay type: biochemical; settings: 0.5 mM fenclofenac in antibody reagent; for Absorbance Change per Minute: 340 nm
# Description: An enzyme inhibitor-labeled immunoassay (U.S. Pat. No. 4,134,792) for thyroxine in serum was conducted using fenclofenac as the TBP blocking agent. Serum standards in 40 μl aliquots containing known concentrations of thyroxine were combined with 0.2 ml of an antibody reagent consisting of 21 μl rabbit antiserum to thyroxine in 1 ml of 0.1M sodium phosphate buffer, pH 6.5, containing 0.3M potassium chloride, 0.05% sodium azide, and 0.5 mM fencolfenac. After a 30 second incubation, to each mixture was added 0.2 ml of a conjugate reagent consisting of 0.63 mg/ml NADPH (0.65 mM), 0.0175 μM of a methotrexate-thyroxine conjugate [prepared as described in the U.S. patent application filed on even date herewith, assigned to the present assignee, entitled "Methotrexate-LabeledIodothyronine Conjugates Ser. No. 318,028, which application is incorporated herein by reference] in 10 mM sodium carbonate buffer, pH 9.5. […] After a further 5 minute incubation, to each mixture was added 50 μl of 2.5 mM dihydrofolate in 0.1M Tris.HCl, pH 8.5. Forty-five (45) seconds later, the absorbance of each solution at 340 nm was read over a 1 minute period.
# [4] = test system: serum proteins (thyroxine binding protein, TBP); test: Effect of pH on the dissociation of iodothyronine from serum proteins; parameters: species or system human; settings: for Percent Dissociated: dissociating agent 2.0 mM
# Description: Radioactive iodine labeled thyroxine (^125 I-thyroxine obtained from Amersham-Searle, Arlington Heights, IL, USA) was equilibrated with 5 ml of normal human serum for 48 hours at 4° C. […] After 5 minutes of incubation at room temperature, a 165 μl aliquot was applied to a Sephadex® column from a Seralute® thyroxine assay kit (Miles Laboratories, Inc., Ames Division, Elkhart, IN, USA), which had been equilibrated with 0.1M sodium phosphate, pH 7.0. The total radioactivity applied to the columns was measured and the undissociated material was washed through the column with 3 ml of buffer. The columns were counted to determine the percentage of thyroxine dissociated from the serum proteins.
# Using the column procedure described in the second study in Example 1, the pH of the 0.1M sodium phosphate was varied and the concentration of the dissociating agent held constant at 2.0 mM. The columns were equilibrated with buffer containing the dissociating agent at the given pH and 165 μl of the serum diluted in buffer at the given pH (as described above) was applied to the column. The total counts were measured and then the columns were washed with buffer at the given pH. The counts remaining on the column represent the percentage of iodothyronine dissociated.
# [5] = test system: antibody to thyroxine; test: Effect on the binding of 125I-thyroxine with antibody (polyethyleneglycol precipitation); settings: for Percent 125I-Thyroxine in Precipitate: percent of radioactivity without fenclofenac, 180 min
# Description: A series of antibody binding reactions were set up in 0.1M sodium phosphate buffer, pH 6.5, to give final volumes of 0.6 ml containing various concentrations of fenclofenac. Each reaction contained ^125 I-thyroxine, 20 μl of normal rabbit immunoglobulin, and 2 μl of antibody to thyroxine. The mixtures were incubated at room temperature for about 3 hours and then 400 μl of 50% (w/v) polyethyleneglycol was added. The precipitated proteins were collected by centrifugation and the radioactivity in each precipitate was measured. The results are shown in Table 2 as percent of the radioactivity in the precipitate without fenclofenac.
# [6] = test system: rabbit antibody to thyroxine; test: Radioimmunoassay for thyroxine in serum with fenclofenac as TBP blocking agent; assay type: binding; settings: 0.67 mM fenclofenac
# Description: A radioimmunoassay for thyroxine in serum was conducted using fenclofenac as the TBP blocking agent. Serum standards in 100 μl aliquots containing known concentrations of thyroxine were combined with 290 μl of 0.1M sodium phosphate buffer, pH 6.5, an amount of fenclofenac to give a concentration of 0.67 mM in the final assay mixture, 2 μl of rabbit antibody to thyroxine, and a fixed amount of ^125 I-thyroxine (approximately 34,000 counts per minute per 100 μl in the final volume). After incubation at room temperature for 2 hours, 400 μl of 50% (w/v) polyethyleneglycol was added and the resulting precipitates collected by centrifugation. The radioactivity of each precipitate was then measured. The results are shown in Table 3 (μg/dl is micrograms per deciliter).
smiles,measurement,setting,value
"O=C(O)Cc1ccccc1Oc1ccc(Cl)cc1Cl [Fenclofenac, 2-(2,4-dichlorophenoxy)phenylacetic acid]",own fluorescence,[1],did not exhibit any fluorescence
same,Absorbance Change Over 10 Minutes,[2]; 0.1 mM fenclofenac,0.359
same,Absorbance Change Over 10 Minutes,[2]; 0.2 mM fenclofenac,0.365
same,Absorbance Change Over 10 Minutes,[2]; 0.5 mM fenclofenac,0.355
same,Absorbance Change Over 10 Minutes,[2]; 1.0 mM fenclofenac,0.332
same,Absorbance Change Over 10 Minutes,[2]; 2.5 mM fenclofenac,0.273
same,Absorbance Change Over 10 Minutes,[2]; 5.0 mM fenclofenac,0.118
same,inhibition of enzyme activity (dihydrofolate reductase),[2]; concentrations below 1.0 mM,did not give substantial inhibition
same,interference with the spectrophotometric response at 340 nm or the enzymatic reaction,[3],did not substantially interfere
same,Absorbance Change per Minute,[3]; thyroxine standard 0 μg/dL,0.1682
same,Absorbance Change per Minute,[3]; thyroxine standard 1.0 μg/dL,0.1659
same,Absorbance Change per Minute,[3]; thyroxine standard 2.5 μg/dL,0.1648
same,Absorbance Change per Minute,[3]; thyroxine standard 10. μg/dL,0.1571
same,Absorbance Change per Minute,[3]; thyroxine standard 20. μg/dL,0.1498
same,pH dependence of the dissociation of iodothyronine from serum proteins,"[4]; over the range pH 6.0-8.0, 2.0 mM",independent of pH
same,Percent Dissociated,[4]; pH 6.0,84%
same,Percent Dissociated,[4]; pH 6.5,84%
same,Percent Dissociated,[4]; pH 7.0,86%
same,Percent Dissociated,[4]; pH 7.5,85%
same,Percent Dissociated,[4]; pH 8.0,83%
same,Percent 125I-Thyroxine in Precipitate,[5]; 0.2 mM fenclofenac,97%
same,Percent 125I-Thyroxine in Precipitate,[5]; 0.5 mM fenclofenac,80%
same,Percent 125I-Thyroxine in Precipitate,[5]; 1.0 mM fenclofenac,69%
same,Percent 125I-Thyroxine in Precipitate,[5]; 2.5 mM fenclofenac,61%
same,Percent 125I-Thyroxine in Precipitate,[5]; 5.0 mM fenclofenac,43%
same,inhibition of the antibody binding reaction,[5]; concentrations below about 2.5 mM,about 40%
same,inhibition of the antibody binding reaction,[5]; concentrations below about 5 mM,about 50%
same,Counts per Minute in Precipitate,[6]; thyroxine standard 0 μg/dl,"23,700 Counts per Minute"
same,Counts per Minute in Precipitate,[6]; thyroxine standard 1.0 μg/dl,"21,800 Counts per Minute"
same,Counts per Minute in Precipitate,[6]; thyroxine standard 2.5 μg/dl,"17,300 Counts per Minute"
same,Counts per Minute in Precipitate,[6]; thyroxine standard 5.0 μg/dl,"14,400 Counts per Minute"
same,Counts per Minute in Precipitate,[6]; thyroxine standard 10.0 μg/dl,"10,000 Counts per Minute"
same,Counts per Minute in Precipitate,[6]; thyroxine standard 20.0 μg/dl,"7,500 Counts per Minute"
